Earlier results, collected in paper PMC3150604 (Journal of medicinal chemistry, 2011).

Biological target: σ1 receptor
Details: read-out: σ1 receptor Ki; literature value ref 46

For `O[C@H]1CCCC[C@@H]1N1CCC(c2ccc(I)s2)CC1` [compound 5, (1S,2S)-2-(4-(5-iodothiophen-2-yl)piperidin-1-yl)cyclohexanol], the Ki is listed as 9.39 nM.
